This passage reports IC50 results from patent publication EP4095134A1, “POLYCYCLIC COMPOUNDS FOR THE TREATMENT OF NEUROLOGICAL INDICATIONS” (UCL Business Ltd, priority 2021, dated 2022).

In this experiment the target is T1, P2Y1 receptor (Homo sapiens, UniProt P47900).
T1 construct: expressed in transfected cells
Kind of experiment: P2Y1 IP1 accumulation HTRF assay, antagonism of agonist MRS2365 in stably transfected cells. Type of experiment: cell-based. The settings on record: 5nM MRS2365, values rounded to nearest whole number. Here is the method: IC50 values were determined using a cell based assay in stably transfected cells overexpressing the P2Y1 receptor. The assay system is a […] (HTRF) assay measuring accumulation of the intracellular messenger inositol monophosphate (IP1), generated intracellularly following activation of P2Y1. Activity of test compounds was generated by measuring antagonism of the increase in IP1 generated by addition of a selective P2Y1 agonist, MRS2365.
P2Y1 overexpressing cells were maintained in T175 flasks. The day before the assay, these cells were split and 20µl cell suspension transferred to each well of white 384-well assay plates at a cell density of 0.5x10^6 cells/mL. Plates were pulse centrifuged, then incubated overnight at 37°C / 5% CO2 prior to assay.
On day of assay, medium was removed from cells and replaced with stimulation buffer. Compounds were prepared in 100% DMSO for addition to cells using the Tecan D300e digital dispenser; compounds were prepared in cassette heads and added directly to wells in the required concentration range, to give a 10-point concentration response curve from 10µM with semi-log dilutions and a final DMSO concentration of 0.1%. Positive control antagonist curves with standard compounds were included on each plate. Plates were incubated with antagonists for 1 hour prior to addition of 5nM of the agonist MRS2365, dispensed using a Bravo liquid handler. Following agonist addition, plates were incubated for 60 minutes prior to assay. Both incubations were carried out at 37°C / 5% CO2.
For the assay, IP1 accumulation was quantified using the IPOne kit according to manufacturer's instructions. In short, a standard curve was prepared for IP 1 quantification, and cells lysed using kit lysis buffer. Assay reagents were added to the lysates, and incubated for 1 hour at room temperature without spinning or shaking. Plates were analysed on a BMG Pherastar plate reader, and IP1 signal generated in cells interpolated from the standard curve.
For all reported results, N is greater than or equal to 4. An individual N refers to one assay run with a single weighing of compound. A minimum of two assay runs were performed for each of two independent weighings of compound. Results (racemic)

Each structure is given as a SMILES string.

T1 sequence (P47900 whole entry): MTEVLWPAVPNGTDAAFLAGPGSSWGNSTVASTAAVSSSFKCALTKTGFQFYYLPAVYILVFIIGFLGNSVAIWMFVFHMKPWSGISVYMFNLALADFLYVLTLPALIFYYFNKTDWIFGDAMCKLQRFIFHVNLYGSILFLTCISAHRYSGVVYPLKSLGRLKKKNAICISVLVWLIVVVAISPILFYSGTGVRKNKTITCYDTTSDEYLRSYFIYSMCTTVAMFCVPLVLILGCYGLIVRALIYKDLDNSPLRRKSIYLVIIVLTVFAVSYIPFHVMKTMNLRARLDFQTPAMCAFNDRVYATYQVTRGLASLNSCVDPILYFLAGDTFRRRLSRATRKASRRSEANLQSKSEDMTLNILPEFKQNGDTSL

Consider `Cc1ccc(NC(=O)Nc2ccc(C#N)cc2)c(Oc2ccc(F)cc2C2(C(F)(F)F)CCO2)n1` (racemic) [S66, 1-(4-cyanophenyl)-3-(2-(4-fluoro-2-(2-(trifluoromethyl)oxetan-2-yl)phenoxy)-6-methylpyridin-3-yl)urea], for which the 50% inhibitory concentration (IC50) (racemic, N >= 4) stood at 1.02 µM.

In the case of `O=C(Nc1cccc(OC(F)(F)F)c1)Nc1cccnc1Oc1ccc(F)cc1C1(C(F)(F)F)CCO1` (racemic) [S49, 1-(2-(4-fluoro-2-(2-(trifluoromethyl)oxetan-2-yl)phenoxy)pyridin-3-yl)-3-(3-(trifluoromethoxy)phenyl)urea], the half-inhibitory concentration (IC50) (racemic, N >= 4) is 0.419 µM.

With `Cn1c(C(F)F)nc2ccc(NC(=O)Nc3cccnc3Oc3ccccc3C3(C(F)(F)F)CCO3)cc21` (racemic) [S85, 1-(2-(difluoromethyl)-1-methyl-1H-benzo[d]imidazol-6-yl)-3-(2-(2-(2-(trifluoromethyl)oxetan-2-yl)phenoxy)pyridin-3-yl)urea], the half-maximal inhibitory concentration (IC50) (racemic, N >= 4) turned out to be 5.58 µM.

Consider `CN1CC[C@@]1(c1ccccc1Oc1ncccc1NC(=O)Nc1ccc(OC(F)(F)F)cc1)C(F)(F)F` [S115], for which the IC50 (single enantiomer) came to 0.039 µM.

As for `CC1(c2ccccc2Oc2ncccc2NC(=O)Nc2ccc(OC(F)(F)F)cc2)CCC1` (racemic) [S95], under “racemic, N >= 4”, the IC50 is 0.036 µM.

Under “racemic, N >= 4”, `Cc1ncc(NC(=O)Nc2ccc(Cl)cc2)c(Oc2ccccc2C2(C(F)(F)F)CCO2)n1` (racemic) [S69, 1-(4-chlorophenyl)-3-(2-methyl-4-(2-(2-(trifluoromethyl)oxetan-2-yl)phenoxy)pyrimidin-5-yl)urea] returned an IC50 of 1.41 µM.

Turning to `Cc1cc2nc(Nc3cccnc3Oc3ccc(F)cc3C3(C(F)(F)F)CCO3)[nH]c2cc1C` (racemic) [S120], for the setting “racemic, N >= 4”, the IC50 was 1.24 µM.

Where the note is “racemic, N >= 4”, `Cc1c(Oc2ncccc2NC(=O)Nc2ccc(OC(F)(F)F)cc2)cccc1C1COC1` (racemic) [S91] showed an IC50 of 1.37 µM.

With `Cc1ccc(NC(=O)Nc2ccc(C(C)C)cc2F)c(Oc2ccccc2[C@@]2(C(F)(F)F)CCO2)n1` (single isomer, unassigned) [S122], under “single enantiomer”, the half-maximal inhibitory concentration (IC50) is 0.018 µM.

Molecule `Cc1ccc(NC(=O)Nc2ccc(Cl)cc2F)c(Oc2ccccc2[C@@]2(C(F)(F)F)CCO2)n1` [S114] gave an IC50 (single enantiomer) of 0.041 µM.

Under “racemic, N >= 4”, `O=C(Nc1ccc(OC(F)(F)F)cc1)Nc1cccnc1Oc1ccc(F)cc1C1(C(F)(F)F)CCO1` (racemic) [S26, 1-(2-(4-fluoro-2-(2-(trifluoromethyl)oxetan-2-yl)phenoxy)pyridin-3-yl)-3-(4-(trifluoromethoxy)phenyl)urea] displayed a 50% inhibitory concentration (IC50) of 0.152 µM.

On to `O=C(Nc1nc2ccccc2[nH]1)Nc1cccnc1Oc1ccccc1C1(C(F)(F)F)CCO1` (racemic) [S84, 1-(1H-benzo[d]imidazol-2-yl)-3-(2-(2-(2-(trifluoromethyl)oxetan-2-yl)phenoxy)pyridin-3-yl)urea], for which the IC50 (racemic, N >= 4) was found to be 4.94 µM.

Where the note is “racemic, N >= 4”, `Cc1ccc(NC(=O)Nc2ccccc2)c(Oc2ccc(F)cc2C2(C(F)(F)F)CCO2)n1` (racemic) [S42, 1-(2-(4-fluoro-2-(2-(trifluoromethyl)oxetan-2-yl)phenoxy)-6-methylpyridin-3-yl)-3-phenylurea] returned a concentration for half-maximal inhibition (IC50) of 0.324 µM.

`CC(C)(c1ccc(NC(=O)Nc2cccnc2Oc2ccccc2[C@@]2(C(F)(F)F)CCO2)cc1)C(F)(F)F` [S101] had an IC50 (single enantiomer) of 0.048 µM.

On to `O=C(Nc1ccc(OC(F)(F)F)cc1)Nc1cccnc1Oc1ccccc1[C@]1(C(F)(F)F)CCO1` [S111], for which the concentration for half-maximal inhibition (IC50) (single enantiomer) came to 0.119 µM.

With `Cc1ncc(NC(=O)Nc2ccc(OC(F)(F)F)cc2)c(Oc2ccccc2C2(C(F)(F)F)CCO2)n1` (racemic) [S59, 1-(2-methyl-4-(2-(2-(trifluoromethyl)oxetan-2-yl)phenoxy)pyrimidin-5-yl)-3-(4-(trifluoromethoxy)phenyl)urea], under “racemic, N >= 4”, the half-maximal inhibitory concentration (IC50) stood at 0.644 µM.

Take `O=C(Nc1ccc(Cl)cc1F)Nc1cccnc1Oc1ccc(F)cc1C1(C(F)(F)F)CCO1` (racemic) [S30, 1-(4-chloro-2-fluorophenyl)-3-(2-(4-fluoro-2-(2-(trifluoromethyl)oxetan-2-yl)phenoxy)pyridin-3-yl)urea]: the IC50 (racemic, N >= 4) was 0.166 µM.
